Measurements taken from ChEMBL document CHEMBL5126512, “Current status of carbazole hybrids as anticancer agents” (Eur J Med Chem, 2022).
pIC50: −log10 of the molar value.

Legend:
[1] = target: Urokinase-type plasminogen activator (Homo sapiens, UniProt P00749); experiment: Inhibition of urokinase plasminogen activator in human MCF7 cells measured after 24 hrs by ELISA method; type: cell-based
[2] = Cytotoxicity against human HFB4 cells assessed as cell growth inhibition measured after 24 hrs by MTT assay; type: toxicity, cell-based
MCF7 [3] = experiment: Anticancer activity against human MCF7 cells assessed as cell growth inhibition measured after 24 hrs by MTT assay; type: functional, cell-based; conditions: MCF7, 24 h
HeLa [4] = experiment: Antiproliferative activity against human HeLa cells assessed as cell growth inhibition by MTT assay; type: functional, cell-based
MDA-MB-231 [5] = experiment: Antiproliferative activity against human MDA-MB-231 cells assessed as cell growth inhibition by MTT assay; type: functional, cell-based
MCF7 [6] = experiment: Antiproliferative activity against human MCF7 cells assessed as cell growth inhibition by MTT assay; type: functional, cell-based
A549 [7] = experiment: Antiproliferative activity against human A549 cells assessed as cell growth inhibition by MTT assay; type: functional, cell-based
COLO 205 = experiment: Antiproliferative activity against human COLO 205 cells assessed as cell growth inhibition by MTT assay; type: functional, cell-based
HCT-116 [8] = experiment: Antiproliferative activity against human HCT-116 cells assessed as cell growth inhibition measured after 48 hrs by MTT assay; type: functional, cell-based; conditions: HCT-116, 48 h
HT-29 = experiment: Antiproliferative activity against human HT-29 cells assessed as cell growth inhibition measured after 48 hrs by MTT assay; type: functional, cell-based; conditions: HT-29, 48 h
[9] = Cytotoxicity against green monkey MARC145 cells assessed as cell growth inhibition measured after 72 hrs by MTT assay; type: toxicity, cell-based, Chlorocebus aethiops
HepG2 [10] = experiment: Cytotoxicity against human HepG2 cells assessed as cell growth inhibition measured after 72 hrs by MTT assay; type: functional, cell-based; conditions: HepG2, 72 h
[11] = Cytotoxicity against human A875 cells assessed as cell growth inhibition measured after 72 hrs by MTT assay; type: functional, cell-based; conditions: A875, 72 h
HeLa [12] = experiment: Cytotoxicity against human HeLa cells assessed as cell growth inhibition by MTT assay; type: functional, cell-based
MCF7 [13] = experiment: Cytotoxicity against human MCF7 cells assessed as cell growth inhibition by MTT assay; type: functional, cell-based
HEp-2 = experiment: Cytotoxicity against human HEp-2 cells assessed as cell growth inhibition by MTT assay; type: functional, cell-based
MCF7 [14] = experiment: Antiproliferative activity against human MCF7 cells assessed as cell growth inhibition measured after 48 hrs by SRB assay; type: functional, cell-based; conditions: MCF7, time 48 hrs
MDA-MB-231 [15] = experiment: Antiproliferative activity against human MDA-MB-231 cells assessed as cell growth inhibition measured after 48 hrs by SRB assay; type: functional, cell-based; conditions: MDA-MB-231, time 48 hrs
ASPC1 = experiment: Anticancer activity against human ASPC1 cells assessed as cell growth inhibition measured after 72 hrs by Cell-Titre Glo luminescent cell viability assay; type: functional, cell-based; conditions: ASPC1, 72 h
SW1990 = experiment: Anticancer activity against human SW1990 cells assessed as cell growth inhibition measured after 72 hrs by Cell-Titre Glo luminescent cell viability assay; type: functional, cell-based; conditions: SW1990, 72 h
SK-OV-3 = experiment: Antiproliferative activity against human SK-OV-3 cells assessed as cell growth inhibition by MTT assay; type: functional, cell-based
K562 = experiment: Antiproliferative activity against human K562 cells assessed as cell growth inhibition by MTT assay; type: functional, cell-based
HCT-116 [16] = experiment: Antiproliferative activity against human HCT-116 cells assessed as cell growth inhibition by MTT assay; type: functional, cell-based
HCT-116 [17] = experiment: Cytotoxicity against human HCT-116 cells assessed as cell growth inhibition measured after 48 hrs by MTT assay; type: functional, cell-based; conditions: HCT-116, 48 h
MCF7 [18] = experiment: Cytotoxicity against human MCF7 cells assessed as cell growth inhibition measured after 48 hrs by MTT assay; type: functional, cell-based; conditions: MCF7, 48 h
HepG2 [19] = experiment: Cytotoxicity against human HepG2 cells assessed as cell growth inhibition measured after 48 hrs by MTT assay; type: functional, cell-based; conditions: HepG2, 48 h
[20] = Cytotoxicity against human RPE-1 cells assessed as cell growth inhibition measured after 48 hrs by MTT assay; type: toxicity, cell-based; conditions: RPE-1 (TERT-RPE1) cells
MCF7 [21] = experiment: Cytotoxicity against human MCF7 cells assessed as cell growth inhibition measured after 72 hrs by MTT assay; type: functional, cell-based; conditions: MCF7, 72 h
A549 [22] = experiment: Antiproliferative activity against human A549 cells assessed as cell growth inhibition measured after 72 hrs by SRB assay; type: functional, cell-based; conditions: A549, 72 h
MDA-MB-231 [23] = experiment: Cytotoxicity against human MDA-MB-231 cells assessed as cell growth inhibition measured after 72 hrs by MTT assay; type: functional, cell-based; conditions: MDA-MB-231, 72 h
HeLa [24] = experiment: Cytotoxicity against human HeLa cells assessed as cell growth inhibition measured after 72 hrs by MTT assay; type: functional, cell-based; conditions: pooled result: one value given for 3 cell lines, strains, targets or settings
A498 = experiment: Antiproliferative activity against human A498 cells assessed as cell growth inhibition measured after 72 hrs by SRB assay; type: functional, cell-based; conditions: A498, 72 h
A549 [25] = experiment: Cytotoxicity against human A549 cells assessed as cell growth inhibition measured after 24 hrs by MTT assay; type: functional, cell-based; conditions: A549, 24 h, pooled result: one value given for 4 cell lines, strains, targets or settings

c1cncc(C2c3[nH]c4ccccc4c3C(c3cccnc3)c3[nH]c4ccccc4c32)c1 (stereo unspecified)
pIC50 [1]: 5.57 | IC50 at 24 h [2]: 80 µM | pIC50 (MCF7 [3]): 5.40

Oc1c(C(c2ccc(Br)cc2)N2CCCC2)ccc2[nH]c3ccccc3c12 (stereo unspecified)
pIC50 (HeLa [4]): 5.27 | pIC50 (MDA-MB-231 [5]): 5.27

COc1ccc2[nH]c3c(C)cc(-c4cc(-c5ccc(F)cc5)nc(N)n4)c(C)c3c2c1
pIC50 (MCF7 [6]): 7.00 | pIC50 (A549 [7]): 7.00 | pIC50 (COLO 205): 7.00

COc1ccc2c(c1)[nH]c1cc(O)c(CN3CCCCC3)cc12
pIC50 (HCT-116 [8]): 4.74 | pIC50 (HT-29): 4.74

Cc1c(C(=O)NCCc2c[nH]c3ccccc23)ccc2c3ccccc3n(C)c12
IC50 at 72 h [9]: > 53.8 µM | pIC50 (HepG2 [10]): < 4.27 | pIC50 [11]: < 4.27

O=C1c2ccsc2N=C2c3[nH]c4ccc(Br)cc4c3CCC12 (stereo unspecified)
pIC50 (HeLa [12]): 5.24 | pIC50 (MCF7 [13]): 5.24 | pIC50 (HEp-2): 5.24

O=C(Cn1c2ccccc2c2ccccc21)NNC(c1ccc([N+](=O)[O-])cc1)N1CCNCC1 (stereo unspecified)
GI50 (MCF7 [14]): < 10 µM | GI50 (MDA-MB-231 [15]): < 10 µM

CCCCCCn1c2ccccc2c2cc(/C=N/NC(=O)c3ccncc3)ccc21
pIC50 (ASPC1): 5.47 | pIC50 (SW1990): 5.47

COc1ccc2[nH]c3c(C)cc(-c4cc(-c5ccc(C(F)(F)F)cc5)nc(N)n4)c(C)c3c2c1
pIC50 (MCF7 [6]): 7.00 | pIC50 (A549 [7]): 7.00 | pIC50 (COLO 205): 7.00

O=Cc1c[nH]c2c1ccc1c3ccccc3n(CCCC(=O)NCCn3ccn4c5ccc(C(F)(F)F)cc5cc34)c12
pIC50 (SK-OV-3): 5.05 | pIC50 (MCF7 [6]): 5.05 | pIC50 (K562): 5.05 | pIC50 (MDA-MB-231 [5]): 5.05 | pIC50 (HCT-116 [16]): 5.05

COc1ccc(C(NNC(=O)Cn2c3ccccc3c3ccccc32)N2CCNCC2)cc1 (stereo unspecified)
GI50 (MCF7 [14]): < 10 µM | GI50 (MDA-MB-231 [15]): < 10 µM

O=Cc1c[nH]c2c1ccc1c3ccccc3n(CCCC(=O)NCCn3ccn4c5ccccc5cc34)c12
pIC50 (SK-OV-3): 5.05 | pIC50 (MCF7 [6]): 5.05 | pIC50 (K562): 5.05 | pIC50 (MDA-MB-231 [5]): 5.05 | pIC50 (HCT-116 [16]): 5.05

CCn1c2ccccc2c2cc(NC(=O)c3c(N)n[nH]c3Nc3ccc(Cl)cc3)ccc21
pIC50 (HCT-116 [17]): 5.53 | pIC50 (MCF7 [18]): 5.53 | pIC50 (HepG2 [19]): 5.53 | IC50 at 48 h [20]: > 100 µM

O=C1c2ccsc2N=C2c3[nH]c4ccc(Cl)cc4c3CCC12 (stereo unspecified)
pIC50 (HeLa [12]): 5.44 | pIC50 (MCF7 [13]): 5.44 | pIC50 (HEp-2): 5.44

Cc1c(C(=O)N/N=C/c2c[nH]c3ccccc23)ccc2c1[nH]c1ccccc12
pIC50 (HepG2 [10]): < 4.88

Cc1c(C(=O)NCCc2c[nH]c3ccccc23)ccc2c1[nH]c1ccccc12
IC50 at 72 h [9]: 20 µM | pIC50 (HepG2 [10]): 4.70 | pIC50 [11]: 4.70

Cc1c2ccncc2c(C)c2c1[nH]c1ccccc12 [ELLIPTECINE]
pIC50 (MCF7 [21]): 5.98 | pIC50 (HeLa [12]): 5.01 | pIC50 (A549 [22]): 6.07 | pIC50 (MDA-MB-231 [23]): 5.98 | pIC50 (HeLa [24]): 5.98 | pIC50 (HepG2 [10]): 5.98 | pIC50 (MCF7 [13]): 5.01 | pIC50 (A498): 5.76 | pIC50 (HEp-2): 5.01

COc1cc([C@@H]2c3cc4c(cc3[C@@H](O[C@@H]3O[C@@H]5CO[C@@H](C)O[C@H]5[C@H](O)[C@H]3O)[C@H]3COC(=O)[C@H]23)OCO4)cc(OC)c1O [ETOPOSIDE]
pIC50 (A549 [25]): 5.71

O=c1[nH]cc(F)c(=O)[nH]1 [FLUOROURACIL]
IC50 at 72 h [9]: 72.3 µM | pIC50 (HepG2 [10]): 4.14 | pIC50 [11]: 4.14

Nc1ccn([C@@H]2O[C@H](CO)[C@@H](O)C2(F)F)c(=O)n1 [GEMCITABINE]
pIC50 (ASPC1): 4.45 | pIC50 (SW1990): 4.40
